Test results: paper PMC12521546 (Nature Communications, 2025)
≈ marks a conversion by molar mass, not a printed value. Entries after “also recorded” stand apart in the source; their conditions may differ. Like-named read-outs stand apart in the source and are kept apart here.

What was measured:
CnAcs1 [1] = molecular target: T1, CnAcs1 (Cryptococcus neoformans, UniProt J9VFT1); conditions: cited from earlier work; for IC50: read-out: IC50 CnAcs1, alkyl-AMP esters
T1 sequence (J9VFT1 1-680): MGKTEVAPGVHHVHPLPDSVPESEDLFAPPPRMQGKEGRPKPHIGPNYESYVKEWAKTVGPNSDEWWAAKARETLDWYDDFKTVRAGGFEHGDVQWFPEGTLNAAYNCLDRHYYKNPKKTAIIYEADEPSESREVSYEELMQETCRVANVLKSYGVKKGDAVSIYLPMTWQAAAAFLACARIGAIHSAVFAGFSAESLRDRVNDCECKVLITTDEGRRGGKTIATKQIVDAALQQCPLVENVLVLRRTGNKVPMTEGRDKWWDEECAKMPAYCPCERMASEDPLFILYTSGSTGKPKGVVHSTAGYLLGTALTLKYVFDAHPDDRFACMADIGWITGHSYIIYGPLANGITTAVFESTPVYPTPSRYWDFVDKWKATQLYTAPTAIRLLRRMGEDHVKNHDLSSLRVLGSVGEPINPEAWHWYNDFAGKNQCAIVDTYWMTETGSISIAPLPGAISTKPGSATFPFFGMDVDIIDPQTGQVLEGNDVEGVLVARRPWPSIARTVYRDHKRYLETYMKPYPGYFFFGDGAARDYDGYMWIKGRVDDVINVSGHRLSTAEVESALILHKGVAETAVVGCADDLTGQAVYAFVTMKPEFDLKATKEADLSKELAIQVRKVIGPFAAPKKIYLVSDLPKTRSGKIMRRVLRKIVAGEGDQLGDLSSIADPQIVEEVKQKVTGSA

CnAcs1 [2] = molecular target: T1, CnAcs1; experiment: Acs coupled kinetic pyrophosphate; format: biochemical
PfAcAS = conditions: cited from earlier work
[3] = test system: C. neoformans reference strain H99; experiment: MIC, modified CLSI micro-broth dilution, H99; format: cell-based, Cryptococcus neoformans
human ACSS2 = human ACSS2 (Homo sapiens, UniProt Q9NR19); experiment: Acs coupled kinetic assay, human ACSS2; format: biochemical
human ACSS2, sequence (Q9NR19 whole entry): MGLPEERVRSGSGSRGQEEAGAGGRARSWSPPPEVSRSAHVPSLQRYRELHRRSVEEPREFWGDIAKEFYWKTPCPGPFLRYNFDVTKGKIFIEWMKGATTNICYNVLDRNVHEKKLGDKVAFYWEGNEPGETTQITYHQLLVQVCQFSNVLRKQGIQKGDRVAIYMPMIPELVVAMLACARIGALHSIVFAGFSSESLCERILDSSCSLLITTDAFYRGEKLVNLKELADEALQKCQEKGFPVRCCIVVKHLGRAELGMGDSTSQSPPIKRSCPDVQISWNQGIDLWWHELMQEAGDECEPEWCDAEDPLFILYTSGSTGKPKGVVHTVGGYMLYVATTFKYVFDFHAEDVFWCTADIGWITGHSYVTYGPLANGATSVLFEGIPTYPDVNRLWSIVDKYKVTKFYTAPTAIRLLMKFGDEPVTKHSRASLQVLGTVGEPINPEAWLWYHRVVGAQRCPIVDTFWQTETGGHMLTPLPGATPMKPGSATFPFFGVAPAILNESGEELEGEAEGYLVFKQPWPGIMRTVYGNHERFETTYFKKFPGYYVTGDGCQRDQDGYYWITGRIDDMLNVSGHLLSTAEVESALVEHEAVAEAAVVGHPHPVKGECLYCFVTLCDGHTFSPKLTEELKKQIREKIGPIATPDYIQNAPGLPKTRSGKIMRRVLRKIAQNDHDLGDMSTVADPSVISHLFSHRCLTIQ

Ca^CnAcs2 = molecular target: T2, Ca^CnAcs2 (Candida albicans, UniProt Q8NJN3, A319M/F357Y/G320A/Q430M/V371T); experiment: Acs assay, Ca^CnAcs2 mutant enzyme; conditions: for IC50: read-out: IC50 Ca^CnAcs2
T2 sequence (Q8NJN3 with tags, fused parts or gaps A319M/G320A/F357Y/V371T/V388A/Q430M): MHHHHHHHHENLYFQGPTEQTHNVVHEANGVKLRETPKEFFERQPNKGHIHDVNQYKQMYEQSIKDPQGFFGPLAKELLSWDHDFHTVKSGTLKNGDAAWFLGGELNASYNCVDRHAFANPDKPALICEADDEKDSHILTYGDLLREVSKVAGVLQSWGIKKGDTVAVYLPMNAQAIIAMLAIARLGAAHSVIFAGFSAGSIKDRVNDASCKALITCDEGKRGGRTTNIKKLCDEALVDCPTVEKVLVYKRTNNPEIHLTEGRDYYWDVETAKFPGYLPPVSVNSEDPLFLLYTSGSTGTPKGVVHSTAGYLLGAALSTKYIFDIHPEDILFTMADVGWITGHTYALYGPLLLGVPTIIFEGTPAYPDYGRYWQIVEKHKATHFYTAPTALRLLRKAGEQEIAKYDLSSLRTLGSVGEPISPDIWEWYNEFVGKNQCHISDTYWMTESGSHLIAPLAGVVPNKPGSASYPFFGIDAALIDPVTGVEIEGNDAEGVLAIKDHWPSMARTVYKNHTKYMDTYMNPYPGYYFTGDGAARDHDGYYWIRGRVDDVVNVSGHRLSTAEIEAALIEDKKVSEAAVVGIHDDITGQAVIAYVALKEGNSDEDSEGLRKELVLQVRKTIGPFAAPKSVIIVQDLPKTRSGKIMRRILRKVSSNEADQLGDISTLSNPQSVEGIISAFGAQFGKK

CaAcs2 [4] = molecular target: T3, CaAcs2 (Candida albicans, UniProt Q8NJN3); experiment: Acs coupled kinetic assay, CaAcs2; format: biochemical
T3 sequence (Q8NJN3 1-671): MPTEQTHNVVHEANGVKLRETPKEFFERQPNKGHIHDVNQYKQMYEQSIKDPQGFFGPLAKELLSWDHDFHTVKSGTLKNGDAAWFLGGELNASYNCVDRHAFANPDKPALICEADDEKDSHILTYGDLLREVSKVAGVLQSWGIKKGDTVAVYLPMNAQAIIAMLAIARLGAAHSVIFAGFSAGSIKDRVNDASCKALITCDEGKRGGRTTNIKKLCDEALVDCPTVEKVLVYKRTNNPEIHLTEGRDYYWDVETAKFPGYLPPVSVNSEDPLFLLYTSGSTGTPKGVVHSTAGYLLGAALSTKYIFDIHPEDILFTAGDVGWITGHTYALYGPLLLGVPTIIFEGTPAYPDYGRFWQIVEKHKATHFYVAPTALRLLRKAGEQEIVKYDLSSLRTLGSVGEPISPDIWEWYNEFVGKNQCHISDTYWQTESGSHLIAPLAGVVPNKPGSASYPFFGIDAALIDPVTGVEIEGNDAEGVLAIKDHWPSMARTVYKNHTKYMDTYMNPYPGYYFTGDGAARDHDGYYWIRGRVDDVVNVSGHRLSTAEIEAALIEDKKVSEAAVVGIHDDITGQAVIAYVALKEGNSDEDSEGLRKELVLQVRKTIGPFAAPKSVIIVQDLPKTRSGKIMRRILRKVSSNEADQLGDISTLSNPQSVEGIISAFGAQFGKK

CaAcs2 [5] = molecular target: T3, CaAcs2; conditions: read-out: IC50 CaAcs2; cited from earlier work

## CCCOP(=O)(O)OC[C@H]1O[C@@H](n2cnc3c(N)ncnc32)[C@H](O)[C@@H]1O [propyl]
CnAcs1 [1]
  decrease in potency relative to ethyl-AMP: 3 fold

## CN(Cc1ccon1)C(=O)c1cccc(-c2ccc(F)cc2)c1 [compound 7]
CnAcs1 [2]
  inhibition of CnAcs1 (in words): completely inactive

## CCN(CC)S(=O)(=O)c1ccc(Cl)c(C(=O)Nc2ccc3nc(C)sc3c2)c1 [MMV019721]
CnAcs1 [2]
  inhibition of CnAcs1 (in words): did not inhibit CnAcs1 below its solubility limit; also recorded: does not inhibit CnAcs1 at the maximum soluble concentration; also recorded: does not significantly inhibit CnAcs1
PfAcAS
  kinetic mechanism of PfAcAS inhibition: competitive with ATP and uncompetitive with CoA
[3]
  antifungal activity against C. neoformans (in words): no activity

## CC(C)OP(=O)(O)OCC1OC(n2cnc3c(N)ncnc32)C(O)C1O (stereo not drawn) [isopropyl-AMP ester]
CnAcs1 [2]
  inhibition of CnAcs1 (in words): equivalent to that of the cyclopropyl-AMP ester

## O=C(NNC(=O)c1csnn1)c1ccc(Cl)cc1 [MMV084978]
CnAcs1 [2]
  fold higher IC50 toward CnAcs1 than PfAcAS: ~ 8 fold
  kinetic mechanism of CnAcs1 inhibition: uncompetitive
CnAcs1 [2]; listed as MMV089478
  kinetic mechanism of CnAcs1 inhibition: uncompetitive inhibitor of CnAcs1
CnAcs1 [2]; listed as MMV0894978
  fold higher IC50 toward CnAcs1 than PfAcAS: 8 fold
CnAcs1 [2]; read-out: Ki with CnAcs1, uncompetitive model, CoA varied
  Ki: 4.1 µM
Human ACSS2
  fold higher IC50 toward ACSS2 than PfAcAS: 50 fold
Ca^CnAcs2
  maximum inhibition of Ca^CnAcs2: 93%
  IC50: 88 ± 21 µM
PfAcAS
  kinetic mechanism of PfAcAS inhibition: uncompetitive inhibitor with respect to ATP and CoA
PfAcAS; read-out: IC50 PfAcAS
  IC50: 0.37 µM
CaAcs2 [4]
  inhibition of CaAcs2 (in words): did not inhibit CaAcs2
[3]; medium not stated
  MIC toward C. neoformans: 64 µg/mL (≈ 226 µM)

## COP(=O)(O)OCC1OC(n2cnc3c(N)ncnc32)C(O)C1O (stereo not drawn) [methyl-AMP ester]
CnAcs1 [2]
  inhibition of CnAcs1 (in words): completely inactive

## Cc1cc(CN(C)C(=O)c2cccc(-c3ccc(F)cc3)c2)no1 [compound 6]
CnAcs1 [2]
  inhibition of CnAcs1 (in words): much less potent than 2
CnAcs1 [2]; read-out: inhibition of CnAcs1
  inhibition at 100 µM: 50%

## COC(=O)c1cccc(N2N=C(C)C(C(=O)Nc3cccc(C(C)(F)F)c3)C2=O)c1 (stereo not drawn) [MTB-9655]
CnAcs1 [2]
  inhibition of CnAcs1 (in words): no activity against CnAcs1

## CCOP(=O)(O)OC[C@H]1O[C@@H](n2cnc3c(N)ncnc32)[C@H](O)[C@@H]1O [ethyl-AMP]
CaAcs2 [5]
  IC50: 11 ± 5 µM
Ca^CnAcs2
  IC50: 19 ± 7 µM
CnAcs1 [1]
  IC50: 8 µM

## CN(Cc1cccc(-c2ccc(F)cc2)c1)Cc1cc(C2CC2)on1 [compound 3]
CnAcs1 [2]
  inhibition of CnAcs1 (in words): no activity against CnAcs1

## CCCCOP(=O)(O)OCC1OC(n2cnc3c(N)ncnc32)C(O)C1O (stereo not drawn) [butyl]
CnAcs1 [1]
  decrease in potency relative to ethyl-AMP: > 50 fold

## CC(C)c1cc(CN(C)C(=O)c2cccc(-c3ccc(F)cc3)c2)no1 [compound 5]
CnAcs1 [2]
  inhibition of CnAcs1 (in words): eliminated inhibition entirely

## CN(Cc1cc(C2CC2)on1)C(=O)c1cccc(-c2ccccc2)c1 [compound 12]
CnAcs1 [2]
  inhibition of CnAcs1 (in words): no activity

## COc1ccccc1-c1cccc(C(=O)N(C)Cc2cc(C3CC3)on2)c1 [compound 10]
CnAcs1 [2]
  inhibition of CnAcs1 (in words): eliminated activity

## Nc1ncnc2c1ncn2[C@@H]1O[C@H](COP(=O)(O)OC2CC2)[C@@H](O)[C@H]1O [cyclopropyl-AMP ester]
CnAcs1 [1]
  IC50: 9 µM

## O=C(NCc1cc(C2CC2)on1)c1cccc(-c2ccc3c(c2)CCO3)c1 [compound 8]
CnAcs1 [2]
  inhibition of CnAcs1 (in words): no activity against CnAcs1

## COc1ccc(-c2cccc(C(=O)N(C)Cc3cc(C4CC4)on3)c2)cc1 [compound 9]
CnAcs1 [2]
  inhibition of CnAcs1 (in words): activity that was similar to 1 and more potent than 2
